Measured values taken from article PMC4460250, “Systems Pharmacology Dissecting Holistic Medicine for Treatment of Complex Diseases: An Example Using Cardiocerebrovascular Diseases Treated by TCM” (Evidence-based Complementary and Alternative Medicine : eCAM, 2015).

How the values were obtained:
[1] = in vivo; cited from earlier work
[2] = in vivo

SMILES	HIA(Human Intestinal Absorption) [1]	Class(High: HIA value ≥0.7; Low: HIA value < 0.7) [2]
NS(=O)(=O)c1cc([C@]2(O)NC(=O)c3ccccc32)ccc1Cl [Chlorthalidone(R)]	0.65	Low (key: High: HIA value ≥0.7; Low: HIA value < 0.7)
NS(=O)(=O)c1cc([C@@]2(O)NC(=O)c3ccccc32)ccc1Cl [Chlorthalidone(S)]	0.65	Low (key: High: HIA value ≥0.7; Low: HIA value < 0.7)
CCCNC(=O)NS(=O)(=O)c1ccc(Cl)cc1 [Chorpropamide]	0.95	High (key: High: HIA value ≥0.7; Low: HIA value < 0.7)
CC(C)(Oc1ccc([C@H]2CC2(Cl)Cl)cc1)C(=O)O [Ciprofibrate(R)]	0.99	High (key: High: HIA value ≥0.7; Low: HIA value < 0.7)
CC(C)(Oc1ccc([C@@H]2CC2(Cl)Cl)cc1)C(=O)O [Ciprofibrate(S)]	0.99	High (key: High: HIA value ≥0.7; Low: HIA value < 0.7)
CN(C)CCC[C@]1(c2ccc(F)cc2)OCc2cc(C#N)ccc21 [Citalopram(R)]	1	High (key: High: HIA value ≥0.7; Low: HIA value < 0.7)
CN1C(=O)CC(=O)N(c2ccccc2)c2cc(Cl)ccc21 [Clobazam]	0.87	High (key: High: HIA value ≥0.7; Low: HIA value < 0.7)
Cc1ncsc1CCCl [Clomethiazole]	0.95	High (key: High: HIA value ≥0.7; Low: HIA value < 0.7)
O=C1CN=C(c2ccccc2Cl)c2cc([N+](=O)[O-])ccc2N1 [Clonazepam]	0.8	High (key: High: HIA value ≥0.7; Low: HIA value < 0.7)
COC(=O)[C@H](c1ccccc1Cl)N1CCc2sccc2C1 [Clopidogrel(S)]	0.5	Low (key: High: HIA value ≥0.7; Low: HIA value < 0.7)
COc1ccc2c3c1O[C@H]1[C@@H](O)C=C[C@H]4[C@@H](C2)N(C)CC[C@@]341 [Codeine]	0.93	High (key: High: HIA value ≥0.7; Low: HIA value < 0.7)
CN1C(=O)CC[C@H]1c1cccnc1 [Cotinine(S)]	0.97	High (key: High: HIA value ≥0.7; Low: HIA value < 0.7)
NS(=O)(=O)c1cc2c(cc1Cl)N[C@@H](CC1CCCC1)NS2(=O)=O [Cyclopenthiazide(R)]	1	High (key: High: HIA value ≥0.7; Low: HIA value < 0.7)
NS(=O)(=O)c1cc2c(cc1Cl)N[C@H](CC1CCCC1)NS2(=O)=O [Cyclopenthiazide(S)]	1	High (key: High: HIA value ≥0.7; Low: HIA value < 0.7)
COc1cccc2c1C(=O)c1c(O)c3c(c(O)c1C2=O)C[C@@](O)(C(C)=O)C[C@@H]3O[C@H]1C[C@H](N)[C@H](O)[C@H](C)O1 [Daunorubicin]	0.1	Low (key: High: HIA value ≥0.7; Low: HIA value < 0.7)
CCCC(CCC)CCC[C@@H]1COCCN1CCO [Delmopinol(R)]	0.95	High (key: High: HIA value ≥0.7; Low: HIA value < 0.7)
CCCC(CCC)CCC[C@H]1COCCN1CCO [Delmopinol(S)]	0.95	High (key: High: HIA value ≥0.7; Low: HIA value < 0.7)
C[C@H](CN1CCOCC1)C(C(=O)N1CCCC1)(c1ccccc1)c1ccccc1 [Dextromoramide]	1	High (key: High: HIA value ≥0.7; Low: HIA value < 0.7)
CC(=O)Oc1ccc2c3c1O[C@H]1[C@@H](OC(C)=O)C=C[C@H]4[C@@H](C2)N(C)CC[C@@]341 [Diacetylmorphine]	1	High (key: High: HIA value ≥0.7; Low: HIA value < 0.7)
